The text below walks through data of PubChem BioAssay (NCI).

Where “and” joins values, the source holds several entries; their conditions need not be identical. Equal values may be shown once.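 Test compounds were applied to cells in 96-well plates for 48 hours at 5 doses. The concentration for 50% growth inhibition is given as GI50. TGI denotes the concentration required for complete inhibition of growth.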

Test systems include DMS 114 small cell lung; M19-MEL melanoma; SNB-78 CNS; P388/ADR leukemia; MCF7 breast; MDA-N; BT-549 breast; T-47D breast; HS 578T breast; RXF-631 renal; P388 leukemia; SN12K1 renal.
Experiment in all cases: NCI tumour cell line growth inhibition, 48 h

Consider `COc1cc(CC2C(=O)OCC2[C@@H](OC(C)=O)c2ccc3c(c2)OCO3)c(Br)c(OC)c1OC` (some centres not stated), for which the TGI with DMS 114 small cell lung and in the experiment with M19-MEL melanoma was over 100 µM in each case.

`O=c1sc(-c2nc3ccccc3[nH]2)c(/N=C/c2ccccc2)n1-c1ccccc1`: the TGI in the experiment with SNB-78 CNS and in the experiment with M19-MEL melanoma was over 100 µM in each case.

Take `c1cnc2nc3n(c2c1)CSC3`: the TGI in the experiment on DMS 114 small cell lung, in the experiment on SNB-78 CNS and in the experiment with M19-MEL melanoma was over 100 µM throughout.

As for `COC(=O)C1=Cc2cn(S(=O)(=O)c3ccc(C)cc3)c3cccc(c23)C(C=C(C)C)N1C(C)=O` (configuration not stated), the TGI with DMS 114 small cell lung, in the experiment on SNB-78 CNS and with M19-MEL melanoma was over 100 µM throughout.

Consider `COC1C(C)OC(OC2CC(C)(O)Cc3cc4c(c(O)c32)C(=O)c2c(O)cc3c(c2C4=O)OC2OC3(C)C(O)C(N(C)C)C2O)C(OC)C1(C)OC` (configuration not stated), for which the TGI is 7.1 µM with P388/ADR leukemia; 0.0635 µM and 0.0446 µM in the experiment with DMS 114 small cell lung; 0.413 µM in the experiment with MCF7 breast; 0.00187 µM in the experiment with MDA-N; 1.78 µM and 2.57 µM with SNB-78 CNS; 0.00655 µM in the experiment with BT-549 breast. In addition, the TGI in the experiment with T-47D breast is 0.000313 µM; in the experiment on HS 578T breast, 0.000563 µM; with RXF-631 renal, 7.14 µM; with P388 leukemia it was 0.51 µM; with SN12K1 renal, 0.06 µM. Moreover, the GI50 in the experiment on SNB-78 CNS is 0.00657 µM and 0.0327 µM.

`O=Cc1cn(S(=O)(=O)c2ccccc2)c2ccccc12`: the TGI with DMS 114 small cell lung is 62.9 µM; in the experiment on SNB-78 CNS, over 100 µM; in the experiment on RXF-631 renal it was over 100 µM; in the experiment with M19-MEL melanoma it was over 100 µM.

Turning to `N/C(=N/N=C/c1cccc(F)c1)NO`, the TGI in the experiment with DMS 114 small cell lung was 84.7 µM; with SNB-78 CNS, over 100 µM; with RXF-631 renal, over 100 µM; in the experiment with M19-MEL melanoma it was over 100 µM.

In the case of `CN(CC1NCCCC1O)C12CC3CC(CC(C3)C1)C2` (configuration not stated), the TGI with DMS 114 small cell lung and in the experiment with M19-MEL melanoma was over 100 µM each time.

Consider `O=C1CCCCCCCCCCOC(=O)CCCCCCCCCCO1`, for which the TGI with DMS 114 small cell lung, with SNB-78 CNS and with M19-MEL melanoma was over 100 µM in each case.

For `COC(=O)c1cc2c(nc1C)-c1ccccc1OS2(=O)=O`, the TGI with DMS 114 small cell lung, in the experiment on SNB-78 CNS, with RXF-631 renal and in the experiment with M19-MEL melanoma was over 100 µM in each case.

In the case of `CSCC(COC(C)=O)(CSC)c1ccncc1`, the TGI in the experiment with DMS 114 small cell lung, in the experiment with SNB-78 CNS and with M19-MEL melanoma was over 100 µM throughout.

Regarding `C=CCn1c(=O)c(C(=O)NC(=O)OCC)cn(C2CCCCC2)c1=O`, the TGI in the experiment on DMS 114 small cell lung, with SNB-78 CNS and with RXF-631 renal was over 100 µM in each case.

Take `C=C1CCC2(C(C)=O)COC1(C)O2` (configuration not stated): the TGI in the experiment with DMS 114 small cell lung and with M19-MEL melanoma was over 100 µM each time.

Regarding `Cc1cc(Cl)ccc1Nc1nc2c(s1)C(=O)c1ccccc1C2=O`, the TGI in the experiment on DMS 114 small cell lung is 4.85 µM; in the experiment on MCF7 breast it was 3.72 µM; in the experiment on SNB-78 CNS it was over 80.9 µM; with BT-549 breast it was 2.9 µM; with T-47D breast it was 7.06 µM; with HS 578T breast, 5.79 µM. For the same molecule, the TGI in the experiment on RXF-631 renal was determined as 20.2 µM; in the experiment with M19-MEL melanoma, 2.06 µM.

For `[Au+].c1c[n-]cn1.c1ccc([PH+](c2ccccc2)c2ccccc2)cc1`, the GI50 with DMS 114 small cell lung is 0.668 µM; with MDA-N, 3.17 µM; in the experiment on SNB-78 CNS, 7.57 µM; in the experiment on BT-549 breast, 3.29 µM; with T-47D breast, 2.02 µM; in the experiment with HS 578T breast it was 17.1 µM. In the experiment with M19-MEL melanoma, the GI50 was 3.4 µM. The TGI in the experiment on DMS 114 small cell lung is 1.91 µM; in the experiment on MDA-N, 12.9 µM; in the experiment on SNB-78 CNS, over 45.2 µM; with BT-549 breast it was over 100 µM; in the experiment with T-47D breast, 4.74 µM; in the experiment on HS 578T breast it was over 100 µM. The same molecule returned a TGI in the experiment on M19-MEL melanoma of 11.9 µM.

As for `O=c1[nH]c(-c2ccc([N+](=O)[O-])cc2)nc2ccc(Cl)cc12`, the TGI with SNB-78 CNS and with M19-MEL melanoma was over 100 µM in each case.

As to `CCOC(=O)CP(=S)(S)c1ccccc1` (configuration not stated), the TGI with DMS 114 small cell lung, in the experiment on SNB-78 CNS and in the experiment with M19-MEL melanoma was over 100 µM each time.

In the case of `c1ccc(N2N=NC3C4CC(C5c6ccccc6C45)C32)cc1` (configuration not stated), the TGI was 47.5 µM with DMS 114 small cell lung, over 100 µM with SNB-78 CNS, over 100 µM with RXF-631 renal and 46.7 µM with M19-MEL melanoma.

For `O=C(CC(=O)N1N=C(c2ccccc2)C(N=Nc2ccccc2Cl)C1=O)Nc1ccccc1Cl` (configuration not stated), the TGI in the experiment on DMS 114 small cell lung, with SNB-78 CNS, in the experiment with RXF-631 renal and in the experiment with M19-MEL melanoma was over 100 µM throughout.

Regarding `Cc1cc(N(CCC#N)CCC#N)ccc1CC1N=C(c2ccccc2)OC1=O` (configuration not stated), the TGI in the experiment with DMS 114 small cell lung, with RXF-631 renal and in the experiment on M19-MEL melanoma was over 100 µM in each case.

On to `CC(C)=Cc1cc(C(=O)NCCNC(=O)c2cc(C=C(C)C)nc(NC#N)n2)nc(NC#N)n1`, for which the TGI with DMS 114 small cell lung and with M19-MEL melanoma was over 100 µM each time.
